Measured values: ChEMBL document CHEMBL5465560, “Selectivity Literature for EUbOPEN Chemogenomic Library” (2024)

How the values were obtained:
[1] = molecular target: T1, Protein kinase C iota type (Homo sapiens) (UniProt P41743); test: Selectivity interaction (Kinase panel (KiNativ target engagement assay in Jurkat cells)) EUB0001635a PRKCI; type: cell-based; settings: Selectivity number of off-targets 0.0, Selectivity number of targets 233.0, Source Knowledge https://www.sciencedirect.com/science/article/pii/S2451945619300674?via%3Dihub, at 1 µM
T1 sequence (whole entry): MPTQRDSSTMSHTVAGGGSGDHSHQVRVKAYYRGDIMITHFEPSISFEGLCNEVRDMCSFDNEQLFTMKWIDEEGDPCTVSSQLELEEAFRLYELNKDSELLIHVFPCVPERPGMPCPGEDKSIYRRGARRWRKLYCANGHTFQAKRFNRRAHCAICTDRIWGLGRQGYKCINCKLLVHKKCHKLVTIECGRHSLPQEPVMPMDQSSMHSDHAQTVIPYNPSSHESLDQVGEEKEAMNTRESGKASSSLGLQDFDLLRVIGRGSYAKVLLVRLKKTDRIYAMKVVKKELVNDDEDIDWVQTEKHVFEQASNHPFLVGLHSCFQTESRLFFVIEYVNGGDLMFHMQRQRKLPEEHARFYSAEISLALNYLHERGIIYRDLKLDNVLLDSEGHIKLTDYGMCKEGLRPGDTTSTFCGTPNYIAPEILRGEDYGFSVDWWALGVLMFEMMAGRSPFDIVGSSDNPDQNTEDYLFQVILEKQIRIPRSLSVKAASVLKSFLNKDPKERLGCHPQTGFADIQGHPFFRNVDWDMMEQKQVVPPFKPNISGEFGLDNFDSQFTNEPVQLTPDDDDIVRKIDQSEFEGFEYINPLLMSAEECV

[2] = molecular target: Casein kinase I isoform gamma-1 (Homo sapiens) (UniProt Q9HCP0); test: Selectivity interaction (KinomeScan (DiscoverX)) EUB0000045b CSNK1G1
[3] = molecular target: Mitogen-activated protein kinase 14 (Homo sapiens, UniProt Q16539); test: Selectivity interaction (KinomeScan (DiscoverX)) EUB0001079a MAPK14; settings: at 1 µM
[4] = molecular target: T2, Serine/threonine-protein kinase D2 (Homo sapiens) (UniProt Q9BZL6); test: Selectivity interaction (ActivX KiNativ screen (ex vivo kinase selectivity in human PBMCs)) EUB0001619a PRKD2; type: cell-based; settings: PBMC, at 1 µM
T2 sequence (whole entry): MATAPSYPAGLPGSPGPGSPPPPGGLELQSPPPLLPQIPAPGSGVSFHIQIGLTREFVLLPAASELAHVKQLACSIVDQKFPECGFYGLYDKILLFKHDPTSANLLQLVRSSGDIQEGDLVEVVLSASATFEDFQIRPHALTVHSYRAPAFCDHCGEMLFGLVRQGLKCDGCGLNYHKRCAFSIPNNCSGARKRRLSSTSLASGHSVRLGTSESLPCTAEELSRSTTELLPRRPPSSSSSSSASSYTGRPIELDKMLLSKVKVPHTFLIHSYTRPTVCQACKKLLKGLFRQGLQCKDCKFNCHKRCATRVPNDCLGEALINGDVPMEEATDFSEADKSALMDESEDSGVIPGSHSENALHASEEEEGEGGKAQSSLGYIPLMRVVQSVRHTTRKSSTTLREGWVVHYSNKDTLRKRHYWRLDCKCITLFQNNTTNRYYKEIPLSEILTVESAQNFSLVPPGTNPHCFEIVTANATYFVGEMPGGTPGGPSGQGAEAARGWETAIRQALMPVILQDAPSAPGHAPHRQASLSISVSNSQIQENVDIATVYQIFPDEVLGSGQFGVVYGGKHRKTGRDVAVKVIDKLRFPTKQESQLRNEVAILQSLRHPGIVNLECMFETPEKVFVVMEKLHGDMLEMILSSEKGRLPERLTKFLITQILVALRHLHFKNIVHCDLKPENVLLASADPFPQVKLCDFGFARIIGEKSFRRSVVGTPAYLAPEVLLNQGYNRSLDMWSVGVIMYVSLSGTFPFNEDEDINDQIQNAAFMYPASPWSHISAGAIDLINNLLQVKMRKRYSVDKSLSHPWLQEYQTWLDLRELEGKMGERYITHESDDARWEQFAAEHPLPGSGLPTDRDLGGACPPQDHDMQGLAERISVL

[5] = molecular target: Serine/threonine-protein kinase 3 (Homo sapiens, UniProt Q13188); test: Selectivity interaction (ADP-Glo kinase assay) EUB0001619a STK3
[6] = molecular target: Tyrosine-protein kinase ABL1 (Homo sapiens, UniProt P00519); test: Selectivity interaction (ActivX KiNativ screen (kinase selectivity in THP-1 cell lysates)) EUB0000639a ABL1; type: subcellular; settings: lysate
[7] = system: T3, Receptor-type tyrosine-protein kinase FLT3 (Homo sapiens), P36888 [D835H]; test: Selectivity interaction (KinomeScan (DiscoverX)) EUB0000655a FLT3; settings: at 10 µM
T3 sequence (whole entry): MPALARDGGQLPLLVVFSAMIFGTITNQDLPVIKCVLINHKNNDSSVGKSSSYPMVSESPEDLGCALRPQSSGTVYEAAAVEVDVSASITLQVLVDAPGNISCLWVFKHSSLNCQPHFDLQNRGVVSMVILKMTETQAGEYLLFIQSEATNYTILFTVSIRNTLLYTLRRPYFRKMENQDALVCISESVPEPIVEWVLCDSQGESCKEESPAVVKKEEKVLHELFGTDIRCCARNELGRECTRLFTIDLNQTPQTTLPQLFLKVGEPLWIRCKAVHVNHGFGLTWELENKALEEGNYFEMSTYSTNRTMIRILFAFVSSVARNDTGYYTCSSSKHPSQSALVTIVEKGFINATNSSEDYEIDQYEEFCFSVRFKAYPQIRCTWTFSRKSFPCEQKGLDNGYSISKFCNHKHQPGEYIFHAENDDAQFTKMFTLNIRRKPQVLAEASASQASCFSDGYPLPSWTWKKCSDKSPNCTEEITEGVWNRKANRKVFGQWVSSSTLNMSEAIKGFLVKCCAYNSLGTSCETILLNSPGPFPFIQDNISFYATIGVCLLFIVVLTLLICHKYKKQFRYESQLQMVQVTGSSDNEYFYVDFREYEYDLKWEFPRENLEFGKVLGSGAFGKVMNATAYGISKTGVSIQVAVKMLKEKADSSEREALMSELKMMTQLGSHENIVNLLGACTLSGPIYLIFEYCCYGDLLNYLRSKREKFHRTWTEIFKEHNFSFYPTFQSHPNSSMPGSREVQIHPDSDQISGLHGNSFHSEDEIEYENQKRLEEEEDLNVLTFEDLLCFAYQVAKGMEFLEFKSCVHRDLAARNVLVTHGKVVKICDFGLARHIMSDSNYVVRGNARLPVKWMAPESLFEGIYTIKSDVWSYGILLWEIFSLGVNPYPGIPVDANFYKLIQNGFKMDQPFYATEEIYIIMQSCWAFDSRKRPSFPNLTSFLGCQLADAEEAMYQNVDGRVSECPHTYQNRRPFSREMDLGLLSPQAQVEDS

Sequence of Tyrosine-protein kinase ABL1 (P00519 whole entry): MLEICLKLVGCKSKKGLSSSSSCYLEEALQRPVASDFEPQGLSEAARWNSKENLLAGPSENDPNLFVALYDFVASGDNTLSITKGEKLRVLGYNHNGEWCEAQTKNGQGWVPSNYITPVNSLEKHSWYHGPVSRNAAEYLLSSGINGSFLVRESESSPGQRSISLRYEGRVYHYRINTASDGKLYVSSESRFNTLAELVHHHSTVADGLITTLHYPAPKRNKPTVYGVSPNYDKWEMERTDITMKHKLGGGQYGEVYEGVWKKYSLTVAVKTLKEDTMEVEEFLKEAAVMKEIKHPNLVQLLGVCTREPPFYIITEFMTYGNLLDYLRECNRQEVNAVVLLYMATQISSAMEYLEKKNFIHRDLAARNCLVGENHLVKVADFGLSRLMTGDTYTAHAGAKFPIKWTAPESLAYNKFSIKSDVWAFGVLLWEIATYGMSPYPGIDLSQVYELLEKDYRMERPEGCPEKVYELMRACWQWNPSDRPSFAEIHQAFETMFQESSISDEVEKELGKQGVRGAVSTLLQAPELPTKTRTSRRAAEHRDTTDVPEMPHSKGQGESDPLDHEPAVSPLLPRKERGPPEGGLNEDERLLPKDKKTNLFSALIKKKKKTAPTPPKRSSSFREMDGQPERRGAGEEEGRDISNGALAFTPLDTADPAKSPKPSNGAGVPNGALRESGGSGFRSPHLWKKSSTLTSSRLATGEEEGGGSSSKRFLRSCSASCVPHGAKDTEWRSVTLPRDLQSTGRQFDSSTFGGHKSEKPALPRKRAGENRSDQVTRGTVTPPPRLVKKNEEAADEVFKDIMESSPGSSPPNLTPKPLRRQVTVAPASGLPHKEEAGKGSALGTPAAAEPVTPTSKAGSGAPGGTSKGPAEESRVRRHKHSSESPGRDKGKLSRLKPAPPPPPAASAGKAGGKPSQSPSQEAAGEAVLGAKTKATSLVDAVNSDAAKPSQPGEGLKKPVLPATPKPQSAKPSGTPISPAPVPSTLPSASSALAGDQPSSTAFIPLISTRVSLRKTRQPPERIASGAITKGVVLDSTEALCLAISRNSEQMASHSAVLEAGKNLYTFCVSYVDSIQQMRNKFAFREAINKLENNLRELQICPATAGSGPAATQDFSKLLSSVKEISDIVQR
Sequence of Casein kinase I isoform gamma-1 (Homo sapiens) (Q9HCP0 whole entry, looked up, canonical isoform): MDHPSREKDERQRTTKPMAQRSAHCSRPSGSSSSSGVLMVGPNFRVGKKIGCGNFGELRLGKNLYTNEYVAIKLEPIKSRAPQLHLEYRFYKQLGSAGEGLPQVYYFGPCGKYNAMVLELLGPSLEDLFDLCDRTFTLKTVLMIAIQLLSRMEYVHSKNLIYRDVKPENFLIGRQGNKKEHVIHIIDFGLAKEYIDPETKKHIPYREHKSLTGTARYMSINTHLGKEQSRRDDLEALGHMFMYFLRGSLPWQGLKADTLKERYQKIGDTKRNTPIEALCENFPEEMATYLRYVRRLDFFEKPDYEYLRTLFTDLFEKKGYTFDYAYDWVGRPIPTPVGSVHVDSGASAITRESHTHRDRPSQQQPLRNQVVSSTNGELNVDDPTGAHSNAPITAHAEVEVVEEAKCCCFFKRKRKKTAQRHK
Sequence of Serine/threonine-protein kinase 3 (Q13188 whole entry): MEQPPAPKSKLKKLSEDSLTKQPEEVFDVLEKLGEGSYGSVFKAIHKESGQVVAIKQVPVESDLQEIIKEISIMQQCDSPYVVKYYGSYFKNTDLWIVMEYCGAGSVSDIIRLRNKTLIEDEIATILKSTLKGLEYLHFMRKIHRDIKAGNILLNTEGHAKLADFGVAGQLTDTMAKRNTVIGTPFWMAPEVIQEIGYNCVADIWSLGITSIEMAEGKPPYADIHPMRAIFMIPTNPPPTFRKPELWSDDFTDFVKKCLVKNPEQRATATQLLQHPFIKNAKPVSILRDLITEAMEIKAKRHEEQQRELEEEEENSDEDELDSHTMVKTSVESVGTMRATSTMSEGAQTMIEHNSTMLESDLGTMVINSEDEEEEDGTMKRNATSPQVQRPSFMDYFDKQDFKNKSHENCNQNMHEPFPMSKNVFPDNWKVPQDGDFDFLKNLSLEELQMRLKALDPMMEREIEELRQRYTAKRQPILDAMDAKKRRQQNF
Sequence of Mitogen-activated protein kinase 14 (Q16539 whole entry): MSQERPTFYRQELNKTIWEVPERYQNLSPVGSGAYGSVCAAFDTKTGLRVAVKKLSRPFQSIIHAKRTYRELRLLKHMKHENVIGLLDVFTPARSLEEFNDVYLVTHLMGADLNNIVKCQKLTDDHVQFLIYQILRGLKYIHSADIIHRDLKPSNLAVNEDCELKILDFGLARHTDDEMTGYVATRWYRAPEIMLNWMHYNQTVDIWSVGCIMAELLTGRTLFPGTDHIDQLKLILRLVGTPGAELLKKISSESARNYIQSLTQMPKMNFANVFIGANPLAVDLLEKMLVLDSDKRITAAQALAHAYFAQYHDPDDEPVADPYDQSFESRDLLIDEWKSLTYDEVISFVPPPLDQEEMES

For `C=CC(=O)Nc1ccc(C(=O)Nc2[nH]nc3c2CN(C(=O)N[C@H](CN(C)C)c2ccccc2)C3(C)C)cc1`, the % of engagement [1] was 9.5%.

`C=CC(=O)Nc1cc(-n2c(=O)ccc3cnc4ccc(-c5ccc(NS(C)(=O)=O)cc5)cc4c32)ccc1C` showed a % of control ([2]; at 1 µM) of 100% and a % of control ([2]; at 10 µM) of 75%.

In the case of `Nc1cnc(N2CCc3cc(S(=O)(=O)Nc4c(F)cc(Cl)cc4F)cc(N4CCCC4=O)c32)nc1` [TP-020n], the % of control [3] is reported as 100%.

For `N#Cc1cccc(-c2c[nH]c3ncnc(N4CCOCC4)c23)c1`, the % of inhibition [4] was 9% and the IC50 [5] was 76 nM.

With `CC[C@@H]1[C@H](F)C(=O)N[C@@H]1COc1nccc2cc(C(N)=O)c(OC)cc12` [ZIMLOVISERTIB] the % of inhibition ([6]; at 0.01 µM) was 12.8%, the % of inhibition ([6]; at 0.04 µM) was -16% and the % of inhibition ([6]; at 0.2 µM) was -25.4%. For the same molecule, the % of inhibition ([6]; at 1 µM) was -5.3% and the % of inhibition ([6]; at 5 µM) was -19.6%.

`CN(C)CCOc1ccc(-c2nc(-c3ccncc3)c(-c3ccc4c(c3)CC/C4=N\O)[nH]2)cc1` showed a % of control [7] of 85%.
